Among the test systems are HOP-62 NSCLC; CCRF-CEM leukemia; DU-145 prostate; SW-620 colon; RXF 393 renal; SN12C renal; KM12 colon; SF-539 CNS; HCC-2998 colon; MALME-3M melanoma.
Common to all, as to assay: NCI anticancer screen, dose series, 48 h

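Test compounds were applied to cells in 96-well plates for 48 hours at 5 doses. GI50 = concentration required for 50% inhibition of growth. TGI marks complete inhibition of growth.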

Consider `COC1CC(OC2OC(CO)C(O)C(O)C2O)/C(=C\C#N)C(O)C1OC` (stereo not given), for which the TGI with HOP-62 NSCLC, in the assay on CCRF-CEM leukemia, with DU-145 prostate, in the assay on SW-620 colon, in the assay on RXF 393 renal and with SN12C renal was over 100 µM throughout. For the same compound, the TGI in the assay on KM12 colon, in the assay with SF-539 CNS, with HCC-2998 colon and in the assay on MALME-3M melanoma was over 100 µM each time.

`CC1CN(CCO)CC(C)O1` (stereo not given): the TGI in the assay with HOP-62 NSCLC, with CCRF-CEM leukemia, in the assay on DU-145 prostate, in the assay on SW-620 colon, in the assay on RXF 393 renal and in the assay with SN12C renal was over 100 µM in each case. The TGI in the assay on KM12 colon, with SF-539 CNS, with HCC-2998 colon and in the assay with MALME-3M melanoma was over 100 µM throughout.

With `C=C1C(=O)OC(CCCCCCCC)C1C(=O)O` (stereo not given), the GI50 was 20.5 µM in the assay on HOP-62 NSCLC; 5.49 µM in the assay with CCRF-CEM leukemia; 15.2 µM in the assay with DU-145 prostate; 15.2 µM with SW-620 colon; 10.7 µM in the assay with RXF 393 renal; 14.3 µM in the assay on SN12C renal. For the same compound, the GI50 in the assay with KM12 colon was 18.3 µM; in the assay with SF-539 CNS it was 17 µM; in the assay on HCC-2998 colon it was 17.5 µM; in the assay with MALME-3M melanoma, 11.9 µM. For the same compound, the TGI stood at 39.1 µM in the assay with HOP-62 NSCLC; 38.7 µM in the assay with CCRF-CEM leukemia; 30.1 µM with DU-145 prostate; 30.7 µM with SW-620 colon; 23.2 µM with RXF 393 renal; 28.5 µM in the assay on SN12C renal. The TGI with KM12 colon came to 34.4 µM; in the assay with SF-539 CNS it was 31.6 µM; with HCC-2998 colon, 31.4 µM; in the assay on MALME-3M melanoma it was 27.3 µM.

In the case of `O=C(Nc1ccc(Cl)c(Cl)c1)Nc1ccc(Cl)c([N+](=O)[O-])c1`, the GI50 with HOP-62 NSCLC is 2.06 µM; with CCRF-CEM leukemia, 1.12 µM; in the assay with DU-145 prostate, 1.2 µM; in the assay on SW-620 colon, 1.1 µM; in the assay with RXF 393 renal, 2.95 µM; in the assay with SN12C renal, 1.04 µM. In addition, the GI50 in the assay with KM12 colon is 1.07 µM; with SF-539 CNS it was 2.17 µM; in the assay with HCC-2998 colon it was 1.22 µM; in the assay with MALME-3M melanoma it was 0.915 µM. Also, the TGI was 6.04 µM in the assay with HOP-62 NSCLC; over 25 µM with CCRF-CEM leukemia; over 25 µM with DU-145 prostate; 4.23 µM in the assay on SW-620 colon; 9.29 µM with RXF 393 renal; 3.94 µM in the assay on SN12C renal. Besides, the TGI in the assay with KM12 colon was found to be 4.38 µM; in the assay with SF-539 CNS, 5.51 µM; in the assay on HCC-2998 colon, 4.58 µM; in the assay on MALME-3M melanoma, 4.96 µM.

Turning to `O=C(Nc1nc2ncn(CCOC(=O)c3ccccc3)c2c(=O)[nH]1)c1ccccc1`, the TGI is over 100 µM in the assay on HOP-62 NSCLC; over 100 µM in the assay on CCRF-CEM leukemia; over 100 µM with DU-145 prostate; over 100 µM in the assay on SW-620 colon; over 93.2 µM with RXF 393 renal; over 100 µM in the assay on SN12C renal. Besides, the TGI is over 100 µM with KM12 colon, 65.2 µM in the assay on SF-539 CNS, over 100 µM with HCC-2998 colon and over 100 µM in the assay on MALME-3M melanoma.

Take `FC(F)(F)c1ccc2nc(-c3nc(-c4ccccc4)n4ccccc34)[nH]c2c1`: the GI50 was 2.46 µM in the assay on HOP-62 NSCLC; 5.64 µM with CCRF-CEM leukemia; 7.5 µM with DU-145 prostate; 3.17 µM in the assay with SW-620 colon; 2.64 µM in the assay with RXF 393 renal; 2.59 µM in the assay with SN12C renal. For the same compound, the GI50 in the assay with KM12 colon is 5.11 µM; in the assay on SF-539 CNS, 1.69 µM; with HCC-2998 colon it was 5.98 µM; in the assay on MALME-3M melanoma, 2.71 µM. In addition, the TGI was 9.26 µM in the assay with HOP-62 NSCLC; over 100 µM in the assay on CCRF-CEM leukemia; 30.3 µM with DU-145 prostate; 23.6 µM in the assay on SW-620 colon; 6.98 µM in the assay with RXF 393 renal; 8.56 µM in the assay with SN12C renal. Besides, the TGI was over 100 µM in the assay with KM12 colon, 3.38 µM with SF-539 CNS, 22.4 µM with HCC-2998 colon and 9.02 µM with MALME-3M melanoma.

Turning to `COc1cc[c]([Hg][Cl])cc1`, the GI50 in the assay on HOP-62 NSCLC is 20.4 µM; in the assay on CCRF-CEM leukemia it was 1.06 µM; in the assay on DU-145 prostate it was 5.23 µM; in the assay on SW-620 colon, 1.54 µM; with RXF 393 renal, 1.76 µM; in the assay with SN12C renal it was 2.51 µM. The GI50 in the assay on KM12 colon is 14.4 µM; in the assay with SF-539 CNS it was 3.3 µM; in the assay with HCC-2998 colon it was 13.5 µM; in the assay on MALME-3M melanoma, 1.88 µM. In addition, the TGI in the assay with HOP-62 NSCLC was found to be 37.8 µM; in the assay with CCRF-CEM leukemia it was 5.4 µM; with DU-145 prostate, 18.2 µM; in the assay on SW-620 colon it was 3.18 µM; with RXF 393 renal, 3.14 µM; with SN12C renal, 6.17 µM. The TGI with KM12 colon worked out at 27.8 µM; with SF-539 CNS, 11.1 µM; in the assay on HCC-2998 colon it was 27.8 µM; in the assay on MALME-3M melanoma, 3.69 µM.

For the origin of these results see PubChem BioAssay (NCI).
